# In PMC4629899, “Structural and Enzymatic Characterization of a Nucleoside Diphosphate Sugar Hydrolase from Bdellovibrio bacteriovorus” (PLoS ONE, 2015):
# B1: Bd-NDPSase (Bd3179) (Bdellovibrio bacteriovorus HD100) (protein)
# chain: MKHLEEKTLSTRQIFKGRYLKIEQDQVQAPDGRTYTREYILHPGAAMMIPLLPNGNVVMIHQYRHAVKKVFLEFPAGKRDHNEETLLTAKRELLEETGYEAKDWKFLTTIHPVIGYSNEHIDLYLARDLTHLEQRLDQGEFIEVVEVKPADLMQLVLEGKVSDVKTQIGAFWLDKFLRGEWN
# notes: gene cloned from HD100 chromosomal DNA into pET24a, expressed in E. coli BL21 (DE3); conventional purification, no tag mentioned; homodimer, residues numbered to 182
# Tests used:
# Bd-NDPSase (Bd3179) [1] = molecular target: T1, Bd-NDPSase (Bd3179) (Bdellovibrio bacteriovorus, UniProt Q6MIH8, E140Q); test: X-ray crystal structure, […] A (soak); type: binding; settings: crystals soaked in 5 mM ADPR for 2 days; catalytically inactive mutant; active site, no metal added
# T1 construct: gene nudF; gene cloned from HD100 chromosomal DNA into pET24a, expressed in E. coli BL21 (DE3); conventional purification, no tag mentioned; homodimer, residues numbered to 182
# T1 sequence (Q6MIH8 entry or part of it E140Q): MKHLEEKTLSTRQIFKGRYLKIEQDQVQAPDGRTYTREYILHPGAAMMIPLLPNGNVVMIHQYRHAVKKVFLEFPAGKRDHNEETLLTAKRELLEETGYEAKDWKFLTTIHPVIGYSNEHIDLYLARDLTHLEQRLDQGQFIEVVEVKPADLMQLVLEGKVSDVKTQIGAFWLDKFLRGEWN
# Bd-NDPSase (Bd3179) [2] = molecular target: T1, Bd-NDPSase (Bd3179); test: X-ray crystal structure, […] A; type: binding; settings: from crystals with 5 mM UDP-glucose (co-crystallization per methods, soak per results); active site, shifted toward phosphate position
# [3] = substrate: Nc1nc2c(ncn2[C@@H]2O[C@H](COP(=O)(O)OP(=O)(O)O[C@H]3O[C@H](CO)[C@@H](O)[C@H](O)[C@@H]3O)[C@@H](O)[C@H]2O)c(=O)[nH]1; test: phosphate release assay (Ames, coupled to calf intestinal phosphatase); type: biochemical, Bdellovibrio bacteriovorus; settings: 5 mM MgCl2, 50 mM Tris-HCl pH 8.6, 1 mM EDTA
# Excerpt: phosphate release assay (Ames, coupled to calf intestinal phosphatase) on Bd-[…]
molecule,measurement,setting,value
"Nc1ncnc2c1ncn2[C@@H]1O[C@H](COP(=O)(O)OP(=O)(O)OC[C@H]2OC(O)[C@H](O)[C@@H]2O)[C@@H](O)[C@H]1O (stereo partly shown) [ADPR, ADP-ribose]","X-ray crystal structure, 2.06 A (soak)",Bd-NDPSase (Bd3179) [1],E140Q Bd-NDPSase in complex with ADP-ribose (PDB ID 5C7T)
OC[C@H]1OC(O)[C@H](O)[C@@H](O)[C@@H]1O (stereo partly shown) [glucose],"X-ray crystal structure, 1.80 A",Bd-NDPSase (Bd3179) [2],E140Q Bd-NDPSase in complex with glucose (PDB ID 5C8L)
B1,Km,[3],300 µM
same,kcat,[3],5200 s⁻¹
